Measured values from ChEMBL document CHEMBL1201861, “Genomics of Drug Sensitity in Cancer screening data, Wellcome Trust Sanger Institute”.

Legend:
Assay in all cases: cells
Assay type in all cases: functional, cell-based, Homo sapiens
Kasumi 1 = conditions: Homo sapiens, Kasumi 1;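 also: growth inhibition of human Kasumi-1 cells, read out by a cell viability assay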
Description: SANGER: Inhibition of human KASUMI-1 cell growth in a cell viability assay.

GCIY = conditions: Homo sapiens, GCIY;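 also: growth inhibition of the human GCIY cell line, read out by a cell viability assay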
Description: SANGER: Inhibition of human GCIY cell growth in a cell viability assay.

D-336MG = conditions: Homo sapiens, D-336MG
Description: SANGER: Inhibition of human D-336MG cell growth in a cell viability assay.

LB831-BLC = conditions: Homo sapiens, LB831-BLC;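 also: growth inhibition of LB831-BLC cells, read out with a cell viability assay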
Description: SANGER: Inhibition of human LB831-BLC cell growth in a cell viability assay.

MDA-MB-134-VI = conditions: Homo sapiens, MDA-MB-134-VI
Description: SANGER: Inhibition of human MDA-MB-134-VI cell growth in a cell viability assay.

LOUCY = conditions: Homo sapiens, LOUCY;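 also: growth inhibition of human LOUCY cells, read out with a cell viability assay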
Description: SANGER: Inhibition of human LOUCY cell growth in a cell viability assay.

TGBC1TKB = conditions: Homo sapiens, TGBC1TKB;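 also: growth inhibition of TGBC1TKB cells, read out by a cell viability assay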
Description: SANGER: Inhibition of human TGBC1TKB cell growth in a cell viability assay.

LAN-6 = conditions: Homo sapiens, LAN-6;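 also: growth inhibition of LAN-6 cells, determined with a cell viability assay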
Description: SANGER: Inhibition of human LAN-6 cell growth in a cell viability assay.

NCI-H1155 = conditions: Homo sapiens, NCI-H1155;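 also: cell growth inhibition measured by a viability assay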
Description: SANGER: Inhibition of human NCI-H1155 cell growth in a cell viability assay.

COLO-320-HSR = conditions: Homo sapiens, COLO-320-HSR;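 also: growth inhibition of COLO-320-HSR cells, determined with a cell viability assay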
Description: SANGER: Inhibition of human COLO-320-HSR cell growth in a cell viability assay.

ECC4 = conditions: Homo sapiens, ECC4;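 also: growth inhibition of ECC4 cells, read out with a cell viability assay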
Description: SANGER: Inhibition of human ECC4 cell growth in a cell viability assay.

BB30-HNC = conditions: Homo sapiens, BB30-HNC;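 also: growth inhibition of the cultured cell line, read out by a cell viability assay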
Description: SANGER: Inhibition of human BB30-HNC cell growth in a cell viability assay.

LB996-RCC = conditions: Homo sapiens, LB996-RCC
Description: SANGER: Inhibition of human LB996-RCC cell growth in a cell viability assay.

TE-15 = conditions: Homo sapiens, TE-15;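 also: cell viability readout of growth inhibition in TE-15 cells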
Description: SANGER: Inhibition of human TE-15 cell growth in a cell viability assay.

SH-4 = conditions: Homo sapiens, SH-4;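 also: growth inhibition of SH-4 cells, read out with a cell viability assay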
Description: SANGER: Inhibition of human SH-4 cell growth in a cell viability assay.

LB647-SCLC = conditions: Homo sapiens, LB647-SCLC;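 also: cell growth inhibition, read out by a viability assay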
Description: SANGER: Inhibition of human LB647-SCLC cell growth in a cell viability assay.

LXF-289 cell line = conditions: Homo sapiens, LXF-289
Description: SANGER: Inhibition of human LXF-289 cell growth in a cell viability assay.

NB13 = conditions: Homo sapiens, NB13;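 also: cell viability readout measuring growth inhibition of human NB13 cells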
Description: SANGER: Inhibition of human NB13 cell growth in a cell viability assay.

CCRF-CEM = conditions: Homo sapiens, CCRF-CEM;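 also: inhibition of CCRF-CEM cell growth, measured by a cell viability assay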
Description: SANGER: Inhibition of human CCRF-CEM cell growth in a cell viability assay.

NEC8 = conditions: Homo sapiens, NEC8;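 also: growth inhibition of human NEC8 cells, read out by a cell viability assay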
Description: SANGER: Inhibition of human NEC8 cell growth in a cell viability assay.

SNU-5 = conditions: Homo sapiens, SNU-5;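 also: cell viability readout used to measure growth inhibition in human NCI-SNU-5 cells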
Description: SANGER: Inhibition of human NCI-SNU-5 cell growth in a cell viability assay.

NCI-H23 = conditions: Homo sapiens, NCI-H23;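 also: cell viability assay measuring growth inhibition of NCI-H23 cells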
Description: SANGER: Inhibition of human NCI-H23 cell growth in a cell viability assay.

U-698-M = conditions: Homo sapiens, U-698-M
Description: SANGER: Inhibition of human U-698-M cell growth in a cell viability assay.

KP-N-YN = conditions: Homo sapiens, KP-N-YN;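 also: growth inhibition of KP-N-YN cells, read out with a cell viability assay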
Description: SANGER: Inhibition of human KP-N-YN cell growth in a cell viability assay.

SNU-C2B = conditions: Homo sapiens, SNU-C2B;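 also: cell viability readout used to measure compound-driven suppression of SNU-C2B cell proliferation, IC50 marking half-maximal growth inhibition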
Description: SANGER: Inhibition of human SNU-C2B cell growth in a cell viability assay.

BOKU = conditions: Homo sapiens, BOKU;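 also: growth inhibition of the human BOKU cell line, read out by a cell viability assay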
Description: SANGER: Inhibition of human BOKU cell growth in a cell viability assay.

Compound	IC50 (Kasumi 1)	IC50 (GCIY)	IC50 (D-336MG)	IC50 (LB831-BLC)	IC50 (MDA-MB-134-VI)	IC50 (LOUCY)	IC50 (TGBC1TKB)	IC50 (LAN-6)	IC50 (NCI-H1155)	IC50 (COLO-320-HSR)	IC50 (ECC4)	IC50 (LB996-RCC)	IC50 (TE-15)	IC50 (SH-4)	IC50 (LB647-SCLC)	IC50 (LXF-289 cell line)	IC50 (NB13)	IC50 (CCRF-CEM)	IC50 (NEC8)	IC50 (SNU-5)	further results
COc1cc(N2CCN(C)CC2)ccc1Nc1ncc2c(n1)N(C)c1ccccc1C(=O)N2C	> 8 µM	> 8 µM	769 nM	> 8000 nM	> 8 µM	> 8 µM	> 8 µM	7.97 µM	> 8 µM	> 8 µM	> 8 µM	5.37 µM	> 8000 nM	1990 nM	> 8 µM	> 8000 nM	> 8000 nM	> 8000 nM	> 8 µM	> 8 µM	IC50 (BB30-HNC): 4510 nM; IC50 (NCI-H23): > 8 µM; IC50 (U-698-M): > 8 µM; IC50 (KP-N-YN): > 8 µM
COc1cc(-c2nn([C@H]3CC[C@H](N4CCN(C(C)=O)CC4)CC3)c3ncnc(N)c23)ccc1NC(=O)c1cc2ccccc2n1C	> 5.12 µM	4.03 µM	212 nM	593 nM	> 5.12 µM	> 5.12 µM	3.63 µM	> 5.12 µM	> 5.12 µM	> 5.12 µM	> 5.12 µM	0.0746 µM	279 nM	913 nM	4.89 µM	757 nM	> 5120 nM	> 5120 nM	> 5.12 µM	> 5.12 µM	IC50 (SNU-C2B): > 5120 nM; IC50 (BB30-HNC): 874 nM; IC50 (BOKU): > 5120 nM; IC50 (NCI-H23): > 5.12 µM; IC50 (U-698-M): > 5.12 µM
OCCCNc1cc(-c2ccnc(Nc3cccc(Cl)c3)n2)ccn1	> 0.256 µM	> 0.256 µM	109 nM	32.5 nM	> 0.256 µM	0.0622 µM	0.0236 µM	0.149 µM	> 0.256 µM	0.0829 µM	> 0.256 µM	0.0325 µM	39.4 nM	> 256 nM	> 0.256 µM	164 nM	126 nM	47 nM	> 0.256 µM	> 0.256 µM	IC50 (SNU-C2B): 104 nM; IC50 (BB30-HNC): 52.5 nM; IC50 (BOKU): 54.3 nM; IC50 (NCI-H23): 0.245 µM; IC50 (U-698-M): > 0.256 µM
Cc1ccc(-c2c(C(=O)CCl)n(CCCO)c3ncnc(N)c23)cc1	> 4 µM	> 4 µM	> 4000 nM	> 4000 nM	> 4 µM	> 4 µM	> 4 µM	> 4 µM	> 4 µM	> 4 µM	> 4 µM	> 4 µM	1820 nM	> 4000 nM	> 4 µM	> 4000 nM	978 nM	2930 nM	> 4 µM	> 4 µM	IC50 (SNU-C2B): > 4000 nM; IC50 (BB30-HNC): 1820 nM; IC50 (BOKU): > 4000 nM; IC50 (NCI-H23): > 4 µM; IC50 (U-698-M): > 4 µM
COc1cc2ncn(-c3cc(OCc4ccccc4S(C)(=O)=O)c(C#N)s3)c2cc1OC [GSK-319347A]	> 5 µM	> 5 µM	> 5000 nM	> 5000 nM	> 5 µM	> 5 µM	> 5 µM	> 5 µM	> 5 µM	> 5 µM	> 5 µM	> 5 µM	> 5000 nM	> 5000 nM	> 5 µM	> 5000 nM	> 5000 nM	> 5000 nM	> 5 µM	> 5 µM	IC50 (BB30-HNC): > 5000 nM; IC50 (NCI-H23): > 5 µM; IC50 (U-698-M): > 5 µM; IC50 (KP-N-YN): > 5 µM
COc1cc2ncn(-c3cc(OCc4ccccc4C(F)(F)F)c(C(N)=O)s3)c2cc1OC [GW843682X]	> 0.256 µM	0.048 µM	> 256 nM	200 nM	> 0.256 µM	0.0159 µM	0.0336 µM	0.139 µM	0.0868 µM	0.0281 µM	> 0.256 µM	0.104 µM	10.8 nM	123 nM	0.0189 µM	16.2 nM	22 nM	14.8 nM	0.0487 µM	0.052 µM	IC50 (SNU-C2B): 7.53 nM; IC50 (BB30-HNC): 34.1 nM; IC50 (BOKU): 135 nM; IC50 (NCI-H23): > 0.256 µM; IC50 (U-698-M): > 0.256 µM
CC[C@H](CO)Nc1nc(NCc2ccccc2)c2ncn(C(C)C)c2n1 [SELICICLIB]	> 16 µM	12.9 µM	> 16000 nM	11600 nM	> 16 µM	> 16 µM	> 16 µM	> 16 µM	> 16 µM	> 16 µM	> 16 µM	> 16 µM	> 16000 nM	> 16000 nM	> 16 µM	> 16000 nM	> 16000 nM	> 16000 nM	> 16 µM	> 16 µM	IC50 (BB30-HNC): > 16000 nM; IC50 (NCI-H23): > 16 µM; IC50 (U-698-M): > 16 µM
CCN(CC)CCNC(=O)c1c(C)[nH]c(/C=C2\C(=O)Nc3ccc(F)cc32)c1C [SUNITINIB]	> 8 µM	> 8 µM	> 8000 nM	> 8000 nM	> 8 µM	> 8 µM	> 8 µM	> 8 µM	> 8 µM	> 8 µM	> 8 µM	4.12 µM	508 nM	5480 nM	> 8 µM	2730 nM	> 8000 nM	> 8000 nM	> 8 µM	> 8 µM	IC50 (SNU-C2B): > 8000 nM; IC50 (BOKU): > 8000 nM; IC50 (NCI-H23): > 8 µM; IC50 (U-698-M): > 8 µM
